Measured values as given in patent US8119568B2, “3-amino-1,2-benzisothiazole compounds for combating animal pest II” (BASF SE, priority 2007, dated 2012).

What was measured:
[1] = tested on: Green Peach Aphid (Myzus persicae); test: Green peach aphid (Myzus persicae) test, infested bell pepper leaves dipped in test solution; format: in vivo; details: 120 h, determined after 5 days, read-out: mortality of green peach aphid in comparison with untreated controls
Description: (§1) If not otherwise described, the active compounds were formulated in a mixture of 50 vol.-% acetone:50 vol.-% water. A nonionic surfactant (Kinetic®) was included in the solution at a volume of 0.01% v/v.
(§2) In the following tests, the formulated solutions of the active compounds were diluted to an active ingredient concentration of 300 ppm and the diluted solutions were applied in the below mentioned tests.
Bell pepper plants at the first true-leaf stage were infested prior to treatment by placing heavily infested leaves from the main aphid colony on top of the treatment plants. The aphids were allowed to transfer overnight to accomplish an infestation of 30-40 aphids per plant and the host leaves were removed. The infested leaves of the test plants were then dipped and agitated in the test solution for 3 seconds and allowed to dry in a fume hood. Test plants were maintained under fluorescent lighting in a 24-hr photoperiod at 25° C. and 20-40% relative humidity. Mortality on the treated plants, relative to mortality on untreated check plants, was determined after 5 days.

[2] = tested on: Southern Armyworm (Spodoptera eridania), 2nd Instar Larvae; test: Southern armyworm (Spodoptera eridania) test, Sieva lima bean leaves dipped; format: in vivo; details: 96 h, 2nd instar larvae on dipped lima bean leaves, at 4 days, read-out: mortality in comparison with untreated controls (southern armyworm)
Description: as §2
The active compounds were formulated in 50:50 acetone:water (vol) and 100 ppm Kinetica™ surfactant.
A pair of first true leaves of Sieva lima bean was dipped into the test solution and allowed to dry. The leaves were then placed in a plastic perforated zip enclosure bag and ten 2nd instar larvae were added. At 4 days, observations were made of mortality and reduced feeding.

[3] = tested on: Cowpea Aphid (aphis craccivora); test: Cowpea aphid (aphis craccivora) test, colonized potted cowpea plants sprayed; format: in vivo; details: assessed after 24, 72, and 120 hours, read-out: mortality in comparison with untreated controls (cowpea aphid)
Description: as §2
The active compound is dissolved at the desired concentration in a mixture of 1:1 (vol:vol) distilled water:acetone. The test solution is prepared at the day of use.
Potted cowpea plants colonized with approximately 100-150 aphids of various stages were sprayed after the pest population has been recorded. Population reduction was assessed after 24, 72, and 120 hours.

[4] = tested on: Cotton Aphid (Aphis gossypii); test: Cotton aphid (Aphis gossypii) test, infested cotton cotyledons dipped in test solution; format: in vivo; details: 120 h, determined after 5 days, read-out: mortality of cotton aphid (Aphis gossypii, mixed life stages) in comparison with untreated controls
Description: as §1, §2
Cotton plants at the cotyledon stage were infested prior to treatment by placing a heavily infested leaf from the main aphid colony on top of each cotyledon. The aphids were allowed to transfer overnight and the host leaf was removed. The infested cotyledons were then dipped and agitated in the test solution for 3 seconds and allowed to dry in a fume hood. Test plants were maintained under fluorescent lighting in a 24-hr photoperiod at 25° C. and 20-40% relative humidity. Aphid mortality on the treated plants, relative to mortality on untreated check plants, was determined after 5 days.

[5] = tested on: Diamond Back Moth (plutella xylostella); test: Diamond back moth (plutella xylostella) test, Chinese cabbage leaves dipped; format: in vivo; details: 3rd instar larvae on dipped cabbage leaves, recorded 24, 72, and 120 hours after treatment, read-out: mortality in comparison with untreated controls (diamond back moth)
Description: as §2
The active compound is dissolved at the desired concentration in a mixture of 1:1 (vol:vol) distilled water:acteon. The test solution is prepared at the day of use.
Leaves of Chinese cabbage were dipped in test solution and air-dried. Treated cabbage leaves were placed in petri dished lined with moist filter paper and 3rd instar larvae were added. Mortality was recorded 24, 72, and 120 hours after treatment.

SMILES | mortality at 300 ppm [1] | mortality at 300 ppm [3] | mortality at 300 ppm [4] | further results
CCN(C(=O)C(F)(F)F)c1nsc2cccc(OC(F)F)c12 [Compound example 26, N-(4-Difluoromethoxy-benzo[d]isothiazol-3-yl)-N-ethyl-2,2,2-trifluoro-acetamide] | – | – | – | melting point: 176 to 177 °C
CC(=O)N(C)c1nsc2cccc(OC(F)F)c12 [compound 25] | ≥ 89% | – | – | –
O=C(Nc1nsc2cccc(Cl)c12)c1cc(Br)nn1-c1ncccc1Cl [compound 74] | – | – | – | mortality at 300 ppm [2]: > 89%
O=C(Nc1nsc2cccc(Cl)c12)c1cc(C(F)(F)F)nn1-c1ncccc1Cl [compound 75] | – | – | – | mortality at 300 ppm [2]: > 89%
COCC(=O)N(C)c1nsc2cccc(OC(F)F)c12 [compound 76] | ≥ 89% | > 89% | – | –
CCN(C(=O)COC)c1nsc2cccc(OC(F)F)c12 [compound 77] | ≥ 89% | > 89% | – | –
CCN(C(=O)c1cc(C(F)(F)F)nn1-c1ncccc1Cl)c1nsc2cccc(OC(F)F)c12 [compound 81] | – | > 89% | – | –
CN(C(=O)c1ccc(Cl)nc1)c1nsc2cccc(OC(F)F)c12 [compound 82] | ≥ 89% | > 89% | – | –
CCN(C(=O)c1ccc(Cl)nc1)c1nsc2cccc(OC(F)F)c12 [compound 83] | ≥ 89% | – | – | –
CCN(C(=O)c1cc(C(F)(F)F)nn1-c1ncccc1Cl)c1nsc2cccc(OC)c12 [compound 86] | – | – | ≥ 89% | –
COCC(=O)N(C)c1nsc2cccc(Cl)c12 [compound 87] | ≥ 89% | > 89% | ≥ 89% | –
O=C(Nc1nsc2cccc(OC(F)F)c12)c1cc(Br)nn1-c1ncccc1Cl [compound 89] | – | – | ≥ 89% | –
CN(C(=O)c1cnccc1C(F)(F)F)c1nsc2cccc(OC(F)F)c12 [compound 91] | – | – | ≥ 89% | –
CN(C(=O)c1cc(Br)nn1-c1ncccc1Cl)c1nsc2cccc(OC(F)F)c12 [compound 92] | – | – | ≥ 89% | –
COc1cccc2snc(N(C)C(=O)c3cc(Br)nn3-c3ncccc3Cl)c12 [compound 94] | – | > 89% | ≥ 89% | –
COc1cccc2snc(N(C)C(=O)c3cnccc3C(F)(F)F)c12 [compound 105] | – | > 89% | ≥ 89% | mortality at 300 ppm [5]: > 89%
CN(C(=O)c1cnccc1C(F)(F)F)c1nsc2cccc(Cl)c12 [compound 106] | – | > 89% | ≥ 89% | –
CN(C(=O)c1ccc(C(F)(F)F)nc1)c1nsc2cccc(Cl)c12 [compound 108] | – | > 89% | ≥ 89% | –
Cc1cccc2snc(NC(=O)c3cc(C(F)(F)F)nn3-c3ncccc3Cl)c12 [compound 113] | – | – | – | mortality at 300 ppm [5]: > 89%; mortality at 300 ppm [2]: > 89%
O=C(Nc1nsc2cccc(Cl)c12)c1ccc(C(F)(F)F)nc1Cl [compound 115] | – | – | ≥ 89% | –
CCCC(=O)N(CC)c1nsc2cccc(OC(F)F)c12 [compound 118] | ≥ 89% | > 89% | ≥ 89% | –
COc1cccc2snc(N=S(C)C)c12 [compound 125] | ≥ 89% | – | ≥ 89% | –
